Measurements published in publication PMC6409085, “Three odorant-binding proteins are involved in the behavioral response of Sogatella furcifera to rice plant volatiles” (PeerJ, 2019).
“And” between values parts separate entries of the source, which are not always exact repeats. Identical values can stand only once.

Legend:
S. furcifera adults = assay: Y-tube olfactometer behavioral trials; type: in vivo, Sogatella furcifera; settings: odorant 50 µL/L vs hexane; adults
How it was run: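 Single S. furcifera adults (2 days post-emergence, starved 0.5 h) chose between odorant (100 µL of 50 µL/L on filter paper) and hexane control in a glass Y-tube, charcoal-filtered humidified air 300 mL/min per arm, 25 ± 1 °C, 50% RH. Choice scored if insect passed half an arm and stayed >1 min within 10 min; 45 insects per compound, chi-squared test.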

SfurOBP1 = SfurOBP1 (Sogatella furcifera, UniProt V5T8N5); assay: biochemical; type: binding; settings: for Fluorescence competitive binding assay, fluorescence intensity: OBP1, three replicate columns
How it was run: (§1)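 Fluorescence competitive binding used 2.0 µM SfurOBP and 2.0 µM 1-NPN reporter in 50 mM Tris-HCl, pH 7.4, with odorants at 2-20 µM. Fluorescence was read 2 min after adding the odorant (excitation 337 nm, emission 390-490 nm), in triplicate. Ki was calculated from IC50 as IC50/(1 + [1-NPN]/K1-NPN).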

SfurOBP3 = SfurOBP3 (Sogatella furcifera, UniProt V5T818); assay: biochemical; type: binding; settings: for Fluorescence competitive binding assay, fluorescence intensity: OBP3, three replicate columns;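 on Fluorescence competitive binding assay, fluorescence intensity: competitor odorant at 2 to 20 µM with protein and 1-NPN both 2.0 µM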
How it was run: as §1

SfurOBP2 = SfurOBP2 (Sogatella furcifera, UniProt V5T759); assay: biochemical; type: binding
How it was run: as §1

SfurOBP11 = SfurOBP11 (Sogatella furcifera, UniProt V5T6E3); assay: biochemical; type: binding
How it was run: as §1
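Wherever Fluorescence competitive binding assay, fluorescence intensity is given: competitor odorant at 2 to 20 µM with protein and 1-NPN both 2.0 µM.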

SfurOBP1, sequence (V5T8N5 entry or part of it): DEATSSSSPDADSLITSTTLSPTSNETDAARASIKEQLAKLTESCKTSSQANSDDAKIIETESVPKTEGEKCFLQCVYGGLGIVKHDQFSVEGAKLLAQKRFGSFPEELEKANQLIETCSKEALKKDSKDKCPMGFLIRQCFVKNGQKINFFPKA
SfurOBP11, sequence (V5T6E3 entry or part of it): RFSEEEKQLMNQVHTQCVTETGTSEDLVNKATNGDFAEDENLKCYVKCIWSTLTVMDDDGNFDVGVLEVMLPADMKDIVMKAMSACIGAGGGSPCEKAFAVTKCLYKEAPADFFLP
SfurOBP3, sequence (V5T818 entry or part of it): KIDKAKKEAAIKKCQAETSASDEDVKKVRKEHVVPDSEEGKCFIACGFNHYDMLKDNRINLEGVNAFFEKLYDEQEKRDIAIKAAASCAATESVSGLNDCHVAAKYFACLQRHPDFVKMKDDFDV
SfurOBP2, sequence (V5T759 entry or part of it): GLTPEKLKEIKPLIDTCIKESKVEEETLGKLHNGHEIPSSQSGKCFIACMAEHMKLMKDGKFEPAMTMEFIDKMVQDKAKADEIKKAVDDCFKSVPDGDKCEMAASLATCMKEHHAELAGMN

Structure (SMILES): OC1CCCCC1 [cyclohexanol]
- number of insects choosing hexane arm (S. furcifera adults): 12
- number of insects choosing volatilies arm (S. furcifera adults): 7
- number of insects failed (no choice) (S. furcifera adults): 21
- IC50 (SfurOBP1): > 20 µM
- Fluorescence competitive binding assay, fluorescence intensity (SfurOBP1; ligand concentration 2 (μM)): 5844 and 5673 and 6371
- Fluorescence competitive binding assay, fluorescence intensity (SfurOBP1; ligand concentration 4 (μM)): 9311 and 8690 and 9932
- Fluorescence competitive binding assay, fluorescence intensity (SfurOBP1; ligand concentration 6 (μM)): 6443 and 7058 and 7039
- Fluorescence competitive binding assay, fluorescence intensity (SfurOBP1; ligand concentration 8 (μM)): 6837 and 7313 and 7729
- Fluorescence competitive binding assay, fluorescence intensity (SfurOBP1; ligand concentration 10 (μM)): 8238 and 7697 and 7236
- Fluorescence competitive binding assay, fluorescence intensity (SfurOBP1; ligand concentration 12 (μM)): 6489 and 6472 and 7355
- Fluorescence competitive binding assay, fluorescence intensity (SfurOBP1; ligand concentration 14 (μM)): 7069 and 6354 and 7092
- Fluorescence competitive binding assay, fluorescence intensity (SfurOBP1; ligand concentration 16 (μM)): 6030 and 6324 and 7260
- Fluorescence competitive binding assay, fluorescence intensity (SfurOBP1; ligand concentration 18 (μM)): 9356 and 7906 and 7474
- Fluorescence competitive binding assay, fluorescence intensity (SfurOBP1; ligand concentration 20 (μM)): 8046 and 8689 and 8368
- IC50 (SfurOBP3): > 20 µM
- Fluorescence competitive binding assay, fluorescence intensity (SfurOBP3; ligand concentration 2): 73467 and 78493 and 77746
- Fluorescence competitive binding assay, fluorescence intensity (SfurOBP3; ligand concentration 4): 78452 and 70026 and 82856
- Fluorescence competitive binding assay, fluorescence intensity (SfurOBP3; ligand concentration 6): 79407 and 77940 and 78195
- Fluorescence competitive binding assay, fluorescence intensity (SfurOBP3; ligand concentration 8): 71546 and 83168 and 84706
- Fluorescence competitive binding assay, fluorescence intensity (SfurOBP3; ligand concentration 10): 73852 and 75338 and 78193
- Fluorescence competitive binding assay, fluorescence intensity (SfurOBP3; ligand concentration 12): 65457 and 72548 and 71432
- Fluorescence competitive binding assay, fluorescence intensity (SfurOBP3; ligand concentration 14): 60072 and 60001 and 71583
- Fluorescence competitive binding assay, fluorescence intensity (SfurOBP3; ligand concentration 16): 61622 and 57596 and 60550
- Fluorescence competitive binding assay, fluorescence intensity (SfurOBP3; ligand concentration 18): 75606 and 79879 and 73633
- Fluorescence competitive binding assay, fluorescence intensity (SfurOBP3; ligand concentration 20): 63397 and 61447 and 55682
- IC50 (SfurOBP2): > 20 µM
- Fluorescence competitive binding assay, OBP2 (raw fluorescence reading) (SfurOBP2; ligand concentration 2 (unit not given), replicate column 1 of 3): 20258
- Fluorescence competitive binding assay, OBP2 (raw fluorescence reading) (SfurOBP2; ligand concentration 2 (unit not given), replicate column 2 of 3): 18511
- Fluorescence competitive binding assay, OBP2 (raw fluorescence reading) (SfurOBP2; ligand concentration 2 (unit not given), replicate column 3 of 3): 18768
- Fluorescence competitive binding assay, OBP2 (raw fluorescence reading) (SfurOBP2; ligand concentration 4 (unit not given), replicate column 1 of 3): 17006
- Fluorescence competitive binding assay, OBP2 (raw fluorescence reading) (SfurOBP2; ligand concentration 4 (unit not given), replicate column 2 of 3): 17312
- Fluorescence competitive binding assay, OBP2 (raw fluorescence reading) (SfurOBP2; ligand concentration 4 (unit not given), replicate column 3 of 3): 19296
- Fluorescence competitive binding assay, OBP2 (raw fluorescence reading) (SfurOBP2; ligand concentration 6 (unit not given), replicate column 1 of 3): 17760
- Fluorescence competitive binding assay, OBP2 (raw fluorescence reading) (SfurOBP2; ligand concentration 6 (unit not given), replicate column 2 of 3): 19185
- Fluorescence competitive binding assay, OBP2 (raw fluorescence reading) (SfurOBP2; ligand concentration 6 (unit not given), replicate column 3 of 3): 18943
- Fluorescence competitive binding assay, OBP2 (raw fluorescence reading) (SfurOBP2; ligand concentration 8 (unit not given), replicate column 1 of 3): 16983
- Fluorescence competitive binding assay, OBP2 (raw fluorescence reading) (SfurOBP2; ligand concentration 8 (unit not given), replicate column 2 of 3): 16921
- Fluorescence competitive binding assay, OBP2 (raw fluorescence reading) (SfurOBP2; ligand concentration 8 (unit not given), replicate column 3 of 3): 18381
- Fluorescence competitive binding assay, OBP2 (raw fluorescence reading) (SfurOBP2; ligand concentration 10 (unit not given), replicate column 1 of 3): 16551
- Fluorescence competitive binding assay, OBP2 (raw fluorescence reading) (SfurOBP2; ligand concentration 10 (unit not given), replicate column 2 of 3): 16106
- Fluorescence competitive binding assay, OBP2 (raw fluorescence reading) (SfurOBP2; ligand concentration 10 (unit not given), replicate column 3 of 3): 17116
- Fluorescence competitive binding assay, OBP2 (raw fluorescence reading) (SfurOBP2; ligand concentration 12 (unit not given), replicate column 1 of 3): 12653
- Fluorescence competitive binding assay, OBP2 (raw fluorescence reading) (SfurOBP2; ligand concentration 12 (unit not given), replicate column 2 of 3): 16542
- Fluorescence competitive binding assay, OBP2 (raw fluorescence reading) (SfurOBP2; ligand concentration 12 (unit not given), replicate column 3 of 3): 15003
- Fluorescence competitive binding assay, OBP2 (raw fluorescence reading) (SfurOBP2; ligand concentration 14 (unit not given), replicate column 1 of 3): 14815
- Fluorescence competitive binding assay, OBP2 (raw fluorescence reading) (SfurOBP2; ligand concentration 14 (unit not given), replicate column 2 of 3): 15068
- Fluorescence competitive binding assay, OBP2 (raw fluorescence reading) (SfurOBP2; ligand concentration 14 (unit not given), replicate column 3 of 3): 14859
- Fluorescence competitive binding assay, OBP2 (raw fluorescence reading) (SfurOBP2; ligand concentration 16 (unit not given), replicate column 1 of 3): 15306
- Fluorescence competitive binding assay, OBP2 (raw fluorescence reading) (SfurOBP2; ligand concentration 16 (unit not given), replicate column 2 of 3): 13071
- Fluorescence competitive binding assay, OBP2 (raw fluorescence reading) (SfurOBP2; ligand concentration 16 (unit not given), replicate column 3 of 3): 13046
- Fluorescence competitive binding assay, OBP2 (raw fluorescence reading) (SfurOBP2; ligand concentration 18 (unit not given), replicate column 1 of 3): 15697
- Fluorescence competitive binding assay, OBP2 (raw fluorescence reading) (SfurOBP2; ligand concentration 18 (unit not given), replicate column 2 of 3): 16234
- Fluorescence competitive binding assay, OBP2 (raw fluorescence reading) (SfurOBP2; ligand concentration 18 (unit not given), replicate column 3 of 3): 16085
- Fluorescence competitive binding assay, OBP2 (raw fluorescence reading) (SfurOBP2; ligand concentration 20 (unit not given), replicate column 1 of 3): 15959
- Fluorescence competitive binding assay, OBP2 (raw fluorescence reading) (SfurOBP2; ligand concentration 20 (unit not given), replicate column 2 of 3): 14904
- Fluorescence competitive binding assay, OBP2 (raw fluorescence reading) (SfurOBP2; ligand concentration 20 (unit not given), replicate column 3 of 3): 13122
- IC50 (SfurOBP11): > 20 µM
- Fluorescence intensity, fluorescence competitive binding assay, OBP11 (SfurOBP11; ligand concentration 2, replicate 1): 24375
- Fluorescence intensity, fluorescence competitive binding assay, OBP11 (SfurOBP11; ligand concentration 2, replicate 2): 24650
- Fluorescence intensity, fluorescence competitive binding assay, OBP11 (SfurOBP11; ligand concentration 2, replicate 3): 24939
- Fluorescence intensity, fluorescence competitive binding assay, OBP11 (SfurOBP11; ligand concentration 4, replicate 1): 24494
- Fluorescence intensity, fluorescence competitive binding assay, OBP11 (SfurOBP11; ligand concentration 4, replicate 2): 24823
- Fluorescence intensity, fluorescence competitive binding assay, OBP11 (SfurOBP11; ligand concentration 4, replicate 3): 24654
- Fluorescence intensity, fluorescence competitive binding assay, OBP11 (SfurOBP11; ligand concentration 6, replicate 1): 24316
- Fluorescence intensity, fluorescence competitive binding assay, OBP11 (SfurOBP11; ligand concentration 6, replicate 2): 24699
- Fluorescence intensity, fluorescence competitive binding assay, OBP11 (SfurOBP11; ligand concentration 6, replicate 3): 24500
- Fluorescence intensity, fluorescence competitive binding assay, OBP11 (SfurOBP11; ligand concentration 8, replicate 1): 24760
- Fluorescence intensity, fluorescence competitive binding assay, OBP11 (SfurOBP11; ligand concentration 8, replicate 2): 24220
- Fluorescence intensity, fluorescence competitive binding assay, OBP11 (SfurOBP11; ligand concentration 8, replicate 3): 24499
- Fluorescence intensity, fluorescence competitive binding assay, OBP11 (SfurOBP11; ligand concentration 10, replicate 1): 22885
- Fluorescence intensity, fluorescence competitive binding assay, OBP11 (SfurOBP11; ligand concentration 10, replicate 2): 23988
- Fluorescence intensity, fluorescence competitive binding assay, OBP11 (SfurOBP11; ligand concentration 10, replicate 3): 24498
- Fluorescence intensity, fluorescence competitive binding assay, OBP11 (SfurOBP11; ligand concentration 12, replicate 1): 23691
- Fluorescence intensity, fluorescence competitive binding assay, OBP11 (SfurOBP11; ligand concentration 12, replicate 2): 23225
- Fluorescence intensity, fluorescence competitive binding assay, OBP11 (SfurOBP11; ligand concentration 12, replicate 3): 24428
- Fluorescence intensity, fluorescence competitive binding assay, OBP11 (SfurOBP11; ligand concentration 14, replicate 1): 22556
- Fluorescence intensity, fluorescence competitive binding assay, OBP11 (SfurOBP11; ligand concentration 14, replicate 2): 23123
- Fluorescence intensity, fluorescence competitive binding assay, OBP11 (SfurOBP11; ligand concentration 14, replicate 3): 22199
- Fluorescence intensity, fluorescence competitive binding assay, OBP11 (SfurOBP11; ligand concentration 16, replicate 1): 21391
- Fluorescence intensity, fluorescence competitive binding assay, OBP11 (SfurOBP11; ligand concentration 16, replicate 2): 22093
- Fluorescence intensity, fluorescence competitive binding assay, OBP11 (SfurOBP11; ligand concentration 16, replicate 3): 21606
- Fluorescence intensity, fluorescence competitive binding assay, OBP11 (SfurOBP11; ligand concentration 18, replicate 1): 23329
- Fluorescence intensity, fluorescence competitive binding assay, OBP11 (SfurOBP11; ligand concentration 18, replicate 2): 23356
- Fluorescence intensity, fluorescence competitive binding assay, OBP11 (SfurOBP11; ligand concentration 18, replicate 3): 23748
- Fluorescence intensity, fluorescence competitive binding assay, OBP11 (SfurOBP11; ligand concentration 20, replicate 1): 23863
- Fluorescence intensity, fluorescence competitive binding assay, OBP11 (SfurOBP11; ligand concentration 20, replicate 2): 23927
- Fluorescence intensity, fluorescence competitive binding assay, OBP11 (SfurOBP11; ligand concentration 20, replicate 3): 23769
